# Target: T1, HCV genotype 1b (BK) NS3 modified with a R155K mutation (Hepatitis C virus genotype 1b, UniProt P26663, R1181K)
# T1 construct: HCV genotype 1b (BK) NS3 modified with a R155K mutation
# Assay: HCV NS3 protease time-resolved fluorescence (TRF) assay, NS3 protease 1b R155K Ki activity
# Format: biochemical
# Details: HCV genotype 1b (BK) NS3 with R155K mutation; TRF peptide substrate 100 nM; Ki derived from IC50
# Experimental: The HCV NS3 protease inhibitory activity of the present compounds may be tested using assays known in the art. One such assay is HCV NS3 protease time-resolved fluorescence (TRF) assay as described below and in International Patent Application Publication WO 2006/102087. Other examples of such assays are described in e.g., International Patent Application Publication WO 2005/046712.
# A NS3 protease assay can be performed, for example, in a final volume of 100 μl assay buffer containing 50 mM HEPES, pH 7.5, 150 mM NaCl, 15% glycerol, 0.15% TRITON X-100, 10 mM DTT, and 0.1% PEG 8000. NS3 and NS4A protease is pre-incubated with various concentrations of inhibitors in DMSO for 30 minutes. The reaction is initiated by adding the TRF peptide substrate (final concentration 100 nM). NS3 mediated hydrolysis of the substrate is quenched after 1 hour at room temperature with 100 μl of 500 mM MES, pH 5.5. Product fluorescence is detected using either a VICTOR V2 or FUSION fluorophotometer (Perkin Elmer Life and Analytical Sciences) with excitation at 340 nm and emission at 615 nm with a 400 μs delay. Testing concentrations of different enzyme forms are selected to result in a signal to background ratio (S/B) of 10-30. IC50 values are derived using a standard four-parameter fit to the data. Ki values are derived from IC50 values using the following formula, IC50=Ki(1+[S]/KM), Eqn (1), where [S] is the concentration of substrate peptide in the reaction and KM is the Michaelis constant. See P. Gallinari et al., 38 BIOCHEM. 5620-32 (1999); P. Gallinari et al., 72 J. VIROL. 6758-69 (1998); M. Taliani et al., 240 ANAL. BIOCHEM. 60-67 (1996).
# The HCV NS3 protease inhibitory activity was measured using the protease time-resolved fluorescence (TRF) assay as described below and in International Patent Application Publication WO 2006/102087. The assay was performed with HCV genotype 1b (BK) NS3 modified with a R155K mutation.
# The assay was performed in a final volume of 100 μl in assay buffer containing 50 mM HEPES, pH 7.5, 150 mM NaCl, 15% glycerol, 0.15% TRITON X-100, 10 mM DTT, and 0.1% PEG 8000. NS3 and NS4A protease is pre-incubated with various concentrations of inhibitors in DMSO for 30 minutes. The reaction is initiated by adding the TRF peptide substrate (final concentration 100 nM). NS3 mediated hydrolysis of the substrate is quenched after 1 hour at room temperature with 100 μl of 500 mM MES, pH 5.5. Product fluorescence is detected using either a VICTOR V2 or FUSION fluorophotometer (Perkin Elmer Life and Analytical Sciences) with excitation at 340 nm and emission at 615 nm with a 400 μs delay. Testing concentrations of the enzyme containing the R155K mutation were selected to result in a signal to background ratio (S/B) of 10-30. IC50 values are derived using a standard four-parameter fit to the data. Ki values are derived from IC50 values using the following formula, IC50=Ki(1+[S]/KM), Eqn (1), where [S] is the concentration of substrate peptide in the reaction and KM is the Michaelis constant. See P. Gallinari et al., 38 BIOCHEM. 5620-32 (1999); P. Gallinari et al., 72 J. VIROL. 6758-69 (1998); M. Taliani et al., 240 ANAL. BIOCHEM. 60-67 (1996).
row,SMILES,Ki [nM]
1,"C=C[C@@H]1C[C@]1(NC(=O)[C@@H]1C[C@@H]2CN1C(=O)[C@H](C1CCCC1)NC(=O)O[C@@H]1CCC[C@H]1CC/C=C/Cn1c(nc3cc(S(C)(=O)=O)ccc3c1=O)O2)C(=O)NS(=O)(=O)C1CC1 [(3aR,7S,10S,12R,22E,25aS)-7-cyclopentyl-N-((1R,2S)-1-{[(cyclopropylsulfonyl)amino]carbonyl}-2-vinylcyclopropyl)-16-(methylsulfonyl)-5,8,19-trioxo-1,2,3,3a,5,6,7,8,11,12,21,24,25,25a-tetradecahydro-10H,19H-9,12-methanocyclopenta[18,19][1,10,3,6,12]dioxatriazacyclononadecino[11,12-b]quinazoline-10-carboxamide]",< 0.1
2,"C=C[C@@H]1C[C@]1(NC(=O)[C@@H]1C[C@@H]2CN1C(=O)[C@H](C1CCCC1)NC(=O)O[C@@H]1CCC[C@H]1CC/C=C/Cn1c(nc3cc(OC)ccc3c1=O)O2)C(=O)NS(=O)(=O)C1CC1 [(3aR,7S,10S,12R,22E,25aS)-7-cyclopentyl-N-((1R,2S)-1-{[(cyclopropylsulfonyl)amino]carbonyl}-2-vinylcyclopropyl)-16-methoxy-5,8,19-trioxo-1,2,3,3a,5,6,7,8,11,12,21,24,25,25a-tetradecahydro-10H,19H-9,12-methanocyclopenta[18,19][1,10,3,6,12]dioxatriazacyclononadecino[11,12-b]quinazoline-10-carboxamide]",< 0.1
3,"C=C[C@@H]1C[C@]1(NC(=O)[C@@H]1C[C@@H]2CN1C(=O)[C@H](C1CCCC1)NC(=O)O[C@@H]1CCC[C@H]1CC/C=C/Cn1c(nc3cccc(OC)c3c1=O)O2)C(=O)NS(=O)(=O)C1CC1 [(3aR,7S,10S,12R,22E,25aS)-7-cyclopentyl-N-((1R,2S)-1-{[(cyclopropylsulfonyl)amino]carbonyl}-2-vinylcyclopropyl)-18-methoxy-5,8,19-trioxo-1,2,3,3a,5,6,7,8,11,12,21,24,25,25a-tetradecahydro-10H,19H-9,12-methanocyclopenta[18,19][1,10,3,6,12]dioxatriazacyclononadecino[11,12-b]quinazoline-10-carboxamide]",< 0.1
4,"CC[C@@H]1C[C@]1(NC(=O)[C@@H]1C[C@@H]2CN1C(=O)[C@H](C1CCCC1)NC(=O)O[C@@H]1CCC[C@H]1CC/C=C/Cn1c(nc3cc(Br)ccc3c1=O)O2)C(=O)NS(=O)(=O)C1CC1 [(3aR,7S,10S,12R,22E,25aS)-16-bromo-7-cyclopentyl-N-((1R,2R)-1-{[(cyclopropylsulfonyl)amino]carbonyl}-2-ethylcyclopropyl)-5,8,19-trioxo-1,2,3,3a,5,6,7,8,11,12,21,24,25,25a-tetradecahydro-10H,19H-9,12-methanocyclopenta[18,19][1,10,3,6,12]dioxatriazacyclononadecino[11,12-b]quinazoline-10-carboxamide]",0.1 to 0.5
5,"CC[C@@H]1C[C@]1(NC(=O)[C@@H]1C[C@@H]2CN1C(=O)[C@H](C1CCCC1)NC(=O)O[C@@H]1CCC[C@H]1CC/C=C/Cn1c(nc3cc(Cl)ccc3c1=O)O2)C(=O)NS(=O)(=O)C1CC1 [(3aR,7S,10S,12R,22E,25aS)-16-chloro-7-cyclopentyl-N-((1R,2R)-1-{[(cyclopropylsulfonyl)amino]carbonyl}-2-ethylcyclopropyl)-5,8,19-trioxo-1,2,3,3a,5,6,7,8,11,12,21,24,25,25a-tetradecahydro-10H,19H-9,12-methanocyclopenta[18,19][1,10,3,6,12]dioxatriazacyclononadecino[11,12-b]quinazoline-10-carboxamide]",0.1 to 0.5
6,"C=C[C@@H]1C[C@]1(NC(=O)[C@@H]1C[C@@H]2CN1C(=O)[C@H](C1CCCC1)NC(=O)O[C@@H]1CCC[C@H]1CC/C=C/Cn1c(nc3cc(Cl)ccc3c1=O)O2)C(=O)NS(=O)(=O)C1CC1 [(3aR,7S,10S,12R,22E,25aS)-16-chloro-7-cyclopentyl-N-((1R,2S)-1-{[(cyclopropylsulfonyl)amino]carbonyl}-2-vinylcyclopropyl)-5,8,19-trioxo-1,2,3,3a,5,6,7,8,11,12,21,24,25,25a-tetradecahydro-10H,19H-9,12-methanocyclopenta[18,19][1,10,3,6,12]dioxatriazacyclononadecino[11,12-b]quinazoline-10-carboxamide]",< 0.1
7,"CC[C@@H]1C[C@]1(NC(=O)[C@@H]1C[C@@H]2CN1C(=O)[C@H](C1CCCC1)NC(=O)O[C@@H]1CCC[C@H]1CC/C=C/Cn1c(nc3cc(C#N)ccc3c1=O)O2)C(=O)NS(=O)(=O)C1CC1 [(3aR,7S,10S,12R,22E,25aS)-16-cyano-7-cyclopentyl-N-((1R,2R)-1-{[(cyclopropylsulfonyl)amino]carbonyl}-2-ethylcyclopropyl)-5,8,19-trioxo-1,2,3,3a,5,6,7,8,11,12,21,24,25,25a-tetradecahydro-10H,19H-9,12-methanocyclopenta[18,19][1,10,3,6,12]dioxatriazacyclononadecino[11,12-b]quinazoline-10-carboxamide]",0.1 to 0.5
8,"C=C[C@@H]1C[C@]1(NC(=O)[C@@H]1C[C@@H]2CN1C(=O)[C@H](C1CCCC1)NC(=O)O[C@@H]1CCC[C@H]1CCC/C=C/Cn1c(cc3ccccc3c1=O)O2)C(=O)NS(=O)(=O)C1CC1 [(3aR,7S,10S,12R,22E,26aR)-7-cyclopentyl-N-((1R,2S)-1-{[(cyclopropylsulfonyl)amino]carbonyl}-2-vinylcyclopropyl)-5,8,19-trioxo-2,3,3a,5,6,7,8,11,12,21,24,25,26,26a-tetradecahydro-1H,10H,19H-9,12-methanocyclopenta[19,20][1,10,3,6,12]dioxatriazacycloicosino[12,11-b]isoquinoline-10-carboxamide]",0.1 to 0.5
9,"C=C[C@@H]1C[C@]1(NC(=O)[C@@H]1C[C@@H]2CN1C(=O)[C@H](C1CCCC1)NC(=O)O[C@@H]1CCC[C@H]1C/C=C/CCn1c(cc3cc(OC)ccc3c1=O)O2)C(=O)NS(=O)(=O)C1CC1 [(3aR,7S,10S,12R,23E,25aS)-7-cyclopentyl-N-((1R,2S)-1-{[(cyclopropylsulfonyl)amino]carbonyl}-2-vinylcyclopropyl)-16-methoxy-5,8,19-trioxo-1,2,3,3a,5,6,7,8,11,12,21,22,25,25a-tetradecahydro-10H,19H-9,12-methanocyclopenta[18,19][1,10,3,6,12]dioxatriazacyclononadecino[12,11-b]isoquinoline-10-carboxamide]",< 0.1
10,"C=C[C@@H]1C[C@]1(NC(=O)[C@@H]1C[C@@H]2CN1C(=O)[C@H](C1CCCC1)NC(=O)O[C@@H]1CCC[C@H]1C/C=C/CCn1c(cc3ccc(F)cc3c1=O)O2)C(=O)NS(=O)(=O)C1CC1 [(3aR,7S,10S,12R,23E,25aS)-7-cyclopentyl-N-((1R,2S)-1-{[(cyclopropylsulfonyl)amino]carbonyl}-2-vinylcyclopropyl)-17-fluoro-5,8,19-trioxo-1,2,3,3a,5,6,7,8,11,12,21,22,25,25a-tetradecahydro-10H,19H-9,12-methanocyclopenta[18,19][1,10,3,6,12]dioxatriazacyclononadecino[12,11-b]isoquinoline-10-carboxamide]",0.1 to 0.5
11,"CC[C@@H]1C[C@]1(NC(=O)[C@@H]1C[C@@H]2CN1C(=O)[C@H](C(C)(C)C)NC(=O)O[C@@H]1CCC[C@H]1C/C=C/CCn1c(cc3cc(Cl)ccc3c1=O)O2)C(=O)NS(=O)(=O)C1CC1 [(3aR,7S,10S,12R,23E,25aS)-7-tert-butyl-16-chloro-N-((1R,2R)-1-{[(cyclopropylsulfonyl)amino]carbonyl}-2-ethylcyclopropyl)-5,8,19-trioxo-1,2,3,3a,5,6,7,8,11,12,21,22,25,25a-tetradecahydro-10H,19H-9,12-methanocyclopenta[18,19][1,10,3,6,12]dioxatriazacyclononadecino[12,11-b]isoquinoline-10-carboxamide]",0.1 to 0.5
